Measured values reported in patent US11802120B2, “Fused cyclic urea derivatives as CRHR2 antagonist” (RaQualia Pharma Inc., priority 2018, dated 2023).

molecular target: T1, human CRHR2-alpha (Homo sapiens, UniProt Q13324); test: cAMP functional assay for human CRHR2 (LANCE Ultra cAMP, TR-FRET); format: cell-based; details: CHO-K1 cells expressing human CRHR2-alpha, agonist human urocortin2 at EC80, cAMP; read-out: IC50 against CRHR2
T1 sequence (Q13324 1-411): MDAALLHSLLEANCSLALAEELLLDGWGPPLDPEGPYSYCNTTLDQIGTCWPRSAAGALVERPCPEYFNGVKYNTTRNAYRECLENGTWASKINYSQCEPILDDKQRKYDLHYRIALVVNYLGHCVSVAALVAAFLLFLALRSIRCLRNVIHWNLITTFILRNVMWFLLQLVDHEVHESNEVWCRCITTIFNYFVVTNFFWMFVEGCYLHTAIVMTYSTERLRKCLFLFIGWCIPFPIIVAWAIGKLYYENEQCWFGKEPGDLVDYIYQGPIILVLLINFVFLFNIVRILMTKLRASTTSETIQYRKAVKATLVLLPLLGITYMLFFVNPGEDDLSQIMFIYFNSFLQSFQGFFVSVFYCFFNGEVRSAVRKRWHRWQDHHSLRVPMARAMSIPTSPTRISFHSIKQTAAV
Method in brief: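 Antagonism measured in CHO-K1 cells stably expressing the receptor, serum-starved 7 h then cryopreserved. Thawed cells in HBSS buffer with 0.1% BSA, 0.5 mM IBMX, 5 mM Hepes pH 7.4 were preincubated with compound 30 min at 25° C, then stimulated 30 min with EC80 agonist: urocortin2 for CRHR2, CRF for CRHR1.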

IC50, < 300 nM:
Cc1ncc(Cl)cc1C(=O)N[C@H]1CC[C@H](Cn2c(=O)n(-c3ccc4c(C)n[nH]c4c3)c3ccccc32)CC1 [Example 205, 5-chloro-2-methyl-N-((1r,4r)-4-((3-(3-methyl-1H-indazol-6-yl)-2-oxo-2,3-dihydro-1H-benzo[d]imidazol-1-yl)methyl)cyclohexyl)nicotinamide]
Cc1ncc(Cl)cc1C(=O)N[C@H]1CC[C@H](Cn2c(=O)n(-c3ccc4cncnc4c3)c3ccccc32)CC1 [Example 443, 5-chloro-2-methyl-N-((1r,4r)-4-((2-oxo-3-(quinazolin-7-yl)-2,3-dihydro-1H-benzo[d]imidazol-1-yl)methyl)cyclo-hexyl)nicotinamide]
N#Cc1cccnc1-n1c(=O)n(C[C@H]2CC[C@H](NC(=O)c3cc(Cl)cnc3C(F)(F)F)CC2)c2ccccc21 [Example 312, 5-chloro-N-((1r,4r)-4-((3-(3-cyanopyridin-2-yl)-2-oxo-2,3-dihydro-1H-benzo[d]imidazol-1-yl)methyl)cyclo-hexyl)-2-(trifluoromethyl) nicotinamide]
COc1ccc(Cl)c(-n2c(=O)n(C[C@H]3CC[C@H](NC(=O)c4cc(Cl)cnc4C(F)F)CC3)c3ncccc32)c1 [Example 675, 5-chloro-N-((1r,4r)-4-((1-(2-chloro-5-methoxyphenyl)-2-oxo-1H-imidazo[4,5-b]pyridin-3(2H)-yl)methyl)cyclohexyl)-2-(difluoro-methyl)nicotinamide]
Cc1ncc(Cl)cc1C(=O)N[C@H]1CC[C@H](Cn2c(=O)n(-c3ccc(C(=O)NCc4cocn4)nc3)c3ccccc32)CC1 [Example 179, 5-(3-(((1r,4r)-(5-chloro-2-methylnicotinamido)cyclo-hexyl)methyl)-2-oxo-2,3-dihydro-1H-benzo[d]imidazol-1-yl)-N-(oxazol-4-ylmethyl) picolinamide]
O=C(N[C@H]1CC[C@H](Cn2c(=O)n(-c3ccnc(N4CCNC4=O)c3)c3ccccc32)CC1)c1cc(Cl)cnc1C(F)F [Example 691, 5-chloro-2-(difluoromethyl)-N-((1r,4r)-4-((2-oxo-3-(2-(2-oxoimidazolidin-1-yl)pyridin-4-yl)-2,3-dihydro-1H-benzo [d]imidazol-1-yl)methyl)cyclo-hexyl)nicotinamide]
O=C(N[C@H]1CC[C@H](Cn2c(=O)n(-c3ccc(-c4ncc[nH]4)cc3)c3ccccc32)CC1)c1cc(Cl)cnc1C(F)F [Example 743, N-((1r,4r)-4-((3-(4-(1H-imidazol-2-yl)phenyl)-2-oxo-2,3-dihydro-1H-benzo[d]imidazol-1-yl)methyl)cyclohexyl)-5-chloro-2-(difluoromethyl)nicotinamide]
Cc1ncc(Cl)cc1C(=O)N[C@H]1CC[C@H](Cn2c(=O)n(-c3ccc(C(=O)NC4CC4)nc3)c3ccccc32)CC1 [Example 151, 5-(3-(((1r,4r)-4-(5-chloro-2-methylnicotinamido)cyclo-hexyl)methyl)-2-oxo-2,3-dihydro-1H-benzo[d]imidazol-1-yl)-N-cyclopropyl-picolinamide]
CNC(=O)c1ccc(-n2c(=O)n(C[C@H]3CC[C@H](NC(=O)c4cc(Cl)cnc4C4CC4)CC3)c3ccccc32)cn1 [Example 317, 5-(3-(((1r,4r)-4-(5-chloro-2-cyclopropylnicotinamido)cyclohexyl)methyl)-2-oxo-2,3-dihydro-1H-benzo[d]imidazol-1-yl)-N-methyl-picolinamide]
O=C(N[C@H]1CC[C@H](Cn2c(=O)n(-c3cc(F)ccc3Cl)c3cccnc32)CC1)c1cc(Cl)cnc1C(F)F [Example 676, 5-chloro-N-((1r,4r)-4-((1-(2-chloro-5-fluorophenyl)-2-oxo-1H-imidazo[4,5-b]pyridin-3(2H)-yl)methyl)cyclohexyl)-2-(difluoro-methyl)nicotinamide]
O=C(N[C@H]1CC[C@H](Cn2c(=O)n(-c3ccc4ncccc4c3)c3ccccc32)CC1)c1cc(Cl)cnc1C(F)(F)F [Example 351, 5-chloro-N-((1r,4r)-4-((2-oxo-3-(quinolin-6-yl)-2,3-dihydro-1H-benzo[d]imidazol-1-yl)methyl)cyclo-hexyl)-2-(trifluoromethyl) nicotinamide]
COc1ccc(-n2c(=O)n(C[C@H]3CC[C@H](NC(=O)c4cc(Cl)cnc4C(F)F)CC3)c3cnccc32)cc1F [Example 724, 5-chloro-2-(difluoromethyl)-N-((1r,4r)-4-((1-(3-fluoro-4-methoxyphenyl)-2-oxo-1H-imidazo[4,5-c]pyridin-3(2H)-yl)methyl)cyclohexyl) nicotinamide]
CCC(=O)Nc1ccc(-n2c(=O)n(C[C@H]3CC[C@H](NC(=O)c4cc(Cl)cnc4C)CC3)c3ccccc32)cn1 [Example 479, 5-chloro-2-methyl-N-((1r,4r)-4-((2-oxo-3-(6-propionamidopyridin-3-yl)-2,3-dihydro-1H-benzo[d]imidazol-1-yl)methyl)cyclohexyl)nicotinamide]
Cc1ncc(Cl)cc1C(=O)N[C@H]1CC[C@H](Cn2c(=O)n(-c3cccc(-n4ccnc4)c3)c3ccccc32)CC1 [Example 539, N-((1r,4r)-4-((3-(3-(1H-imidazol-1-yl)phenyl)-2-oxo-2,3-dihydro-1H-benzo[d]imidazol-1-yl)methyl)cyclohexyl)-5-chloro-2-methylnicotinamide]
CNc1ccc(-n2c(=O)n(C[C@H]3CC[C@H](NC(=O)c4cc(Cl)cnc4C)CC3)c3ccc(F)cc32)cn1 [Example 625, 5-chloro-N-((1r,4r)-4-((5-fluoro-3-(6-(methylamino)pyridin-3-yl)-2-oxo-2,3-dihydro-1H-benzo[d]imidazol-1-yl)methyl)cyclohexyl)-2-methylnicotinamide]
Cc1ncc(Cl)cc1C(=O)N[C@H]1CC[C@H](Cn2c(=O)n(C3Cc4ccccc4C3)c3ccccc32)CC1 [Example 184, 5-chloro-N-((1r,4r)-4-((3-(2,3-dihydro-1H-inden-2-yl)-2-oxo-2,3-dihydro-1H-benzo [d]imidazol-1-yl)methyl)cyclohexyl)-2-methyl-nicotinamide]
CNc1ncc(-n2c(=O)n(C[C@H]3CC[C@H](NC(=O)c4cc(Cl)cnc4C)CC3)c3ccccc32)cc1Cl [Example 522, 5-chloro-N-((1r,4r)-4-((3-(5-chloro-6-(methylamino)pyridin-3-yl)-2-oxo-2,3-dihydro-1H-benzo[d]imidazol-1-yl)methyl)cyclohexyl)-2-methyl-nicotinamide]
CC(=O)N1CCc2cc(-n3c(=O)n(C[C@H]4CC[C@H](NC(=O)c5cc(Cl)cnc5C)CC4)c4ccccc43)ccc2C1 [Example 218, N-((1r,4r)-4-((3-(2-acetyl-1,2,3,4-tetrahydroisoquinolin-6-yl)-2-oxo-2,3-dihydro-1H-benzo[d]imidazol-1-yl)methyl)cyclohexyl)-5-chloro-2-methylnicotinamide]
Cc1ncc(Cl)cc1C(=O)N[C@H]1CC[C@H](Cn2c(=O)n(CC(=O)c3ccc(C#N)cc3)c3ccccc32)CC1 [Example 13, 5-chloro-N-((1r,4r)-4-((3-(2-(4-cyanophenyl)-2-oxoethyl)-2-oxo-2,3-dihydro-1H-benzo[d]imidazol-1-yl)methyl)cyclohexyl)-2-methylnicotinamide]
COc1ccc(C#N)c(-n2c(=O)n(C[C@H]3CC[C@H](NC(=O)c4cc(Cl)cnc4C(F)(F)F)CC3)c3ccccc32)c1 [Example 292, 5-chloro-N-((1r,4r)-4-((3-(2-cyano-5-methoxyphenyl)-2-oxo-2,3-dihydro-1H-benzo[d]imidazol-1-yl)methyl)cyclohexyl)-2-(trifluoromethyl)nicotinamide]
O=C(N[C@H]1CC[C@H](Cn2c(=O)n(-c3ccc(-c4ncc[nH]4)nc3)c3ccccc32)CC1)c1cc(Cl)cnc1C(F)F [Example 733, N-((1r,4r)-4-((3-(6-(1H-imidazol-2-yl)pyridin-3-yl)-2-oxo-2,3-dihydro-1H-benzo[d]imidazol-1-yl)methyl)cyclohexyl)-5-chloro-2-(difluoromethyl)nicotinamide]
Cc1ncc(Cl)cc1C(=O)N[C@H]1CC[C@H](Cn2c(=O)n(-c3ccc(C(=O)Nc4cccnn4)nc3)c3ccccc32)CC1 [Example 175, 5-(3-(((1r,4r)-4-(5-chloro-2-methylnicotinamido)cyclo-hexyl)methyl)-2-oxo-2,3-dihydro-1H-benzo[d]imidazol-1-yl)-N-(pyridazin-3-yl) picolinamide]
Cc1ncc(Cl)cc1C(=O)N[C@H]1CC[C@H](Cn2c(=O)n(-c3ccc4nn(C5COC5)nc4c3)c3ccccc32)CC1 [Example 340, 5-chloro-2-methyl-N-((1r,4r)-4-((3-(2-(oxetan-3-yl)-2H-benzo[d][1,2,3]triazol-5-yl)-2-oxo-2,3-dihydro-1H-benzo [d]imidazol-1-yl)methyl)cyclohexyl)nicotinamide]
